# Data reported in US11040036B2, “Pyruvate kinase activators for use in treating blood disorders” (Agios Pharmaceuticals, Inc., priority 2017, dated 2021).
# Legend:
# wild type PKR [1] = biological target: T1, wild type PKR (Homo sapiens, UniProt P30613); experiment: Cell based ATP assay in purified red blood cells; parameters: endogenous in cells; host or cells: purified red blood cells from blood of healthy volunteers; conditions: RBCs, overnight at 37° C., ATP levels by Cell-Titer-Glo
# Outline: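 ATP content was measured by CellTiter-Glo after overnight exposure to compound at 37 °C. Cells were purified red blood cells from healthy donors, filtered to remove leukocytes and suspended at 1×10^7 cells/mL in AGAM medium. Compounds were serially diluted 1:4, with 0.1% DMSO final.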
# PKR K410E = PKR K410E (Homo sapiens, UniProt P30613, K410E); experiment: PKR mutant assay (AC50), PKR K410E; assay type: biochemical; conditions: PKR K410E mutant enzyme
# Sequence of PKR K410E (P30613 whole entry K410E): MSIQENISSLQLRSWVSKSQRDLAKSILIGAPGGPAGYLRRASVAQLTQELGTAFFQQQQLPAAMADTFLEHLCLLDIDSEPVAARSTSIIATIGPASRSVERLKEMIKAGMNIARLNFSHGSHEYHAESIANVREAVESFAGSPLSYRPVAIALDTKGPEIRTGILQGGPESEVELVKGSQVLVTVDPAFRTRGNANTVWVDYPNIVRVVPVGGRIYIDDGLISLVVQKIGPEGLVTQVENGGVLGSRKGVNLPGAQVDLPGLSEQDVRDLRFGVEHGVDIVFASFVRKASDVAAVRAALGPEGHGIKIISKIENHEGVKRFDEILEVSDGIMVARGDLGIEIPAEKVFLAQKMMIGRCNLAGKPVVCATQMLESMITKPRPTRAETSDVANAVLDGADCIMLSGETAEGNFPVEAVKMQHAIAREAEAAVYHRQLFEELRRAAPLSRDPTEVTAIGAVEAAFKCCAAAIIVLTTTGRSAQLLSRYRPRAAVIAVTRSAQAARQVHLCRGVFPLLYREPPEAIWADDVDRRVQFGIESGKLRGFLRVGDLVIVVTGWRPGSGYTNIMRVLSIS
# Outline: (§1)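 Compounds were tested from 100 μM final, 3-fold over 11 points, and held 60 min at room temperature with enzyme (40-400 ng/well wild-type, R510Q or K410E PKR). ADP 0.2-1.65 mM then started the reaction, with PEP 0.1-0.5 mM in pH 7.5 Tris/KCl/MgCl2 buffer. LDH/NADH (180 μM) coupled read-out was taken as A340 change, fitted to AC50.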
# wild type PKR [2] = biological target: T1, wild type PKR; experiment: PKR mutant assay (AC50), wild type PKR; assay type: biochemical; conditions: wild type PKR enzyme; read-out: PKR WT AC50
# Outline: as §1
# PKR R510Q = PKR R510Q (Homo sapiens, UniProt P30613, R510Q); experiment: PKR mutant assay (AC50), PKR R510Q; assay type: biochemical; conditions: PKR R510Q mutant enzyme; read-out: PK R510Q AC50
# Sequence of PKR R510Q (P30613 whole entry R510Q): as the sequence (P30613 whole entry K410E) above, with E410K, R510Q counted along it
# Outline: as §1
# T1 sequence (P30613 whole entry): as the sequence (P30613 whole entry K410E) above, with E410K counted along it
Structure (SMILES),AC50 (wild type PKR [1]),AC50 (PKR K410E),AC50 (wild type PKR [2]),AC50 (PKR R510Q),Cell based ATP assay AC50 (wild type PKR [1])
Cn1c2nc(Cc3cc[nH]n3)sc2c2cnn(Cc3ncsc3C(N)=O)c(=O)c21,≤ 1000 nM,< 300 nM,< 300 nM,< 300 nM,–
Cn1c2nc(Cc3cc[nH]n3)sc2c2cnn(Cc3cnc(N)s3)c(=O)c21,≤ 1000 nM,< 300 nM,< 300 nM,< 300 nM,–
Cn1c2nc(Cc3cc[nH]n3)sc2c2cnn(Cc3c[nH]cn3)c(=O)c21,≤ 1000 nM,< 300 nM,< 300 nM,< 300 nM,–
Cn1c2nc(Cc3ccn[nH]3)sc2c2cnn(Cc3cn[nH]c3)c(=O)c21,≤ 1000 nM,< 300 nM,< 300 nM,< 300 nM,–
Cn1c2nc(Cc3cc[nH]n3)sc2c2cnn(Cc3c[nH]nn3)c(=O)c21,≤ 1000 nM,< 300 nM,< 300 nM,< 300 nM,–
Cn1c2nc(Cc3cc[nH]n3)sc2c2cnn(Cc3ccns3)c(=O)c21,≤ 1000 nM,< 300 nM,< 300 nM,< 300 nM,–
Cn1c2nc(Cc3cc[nH]n3)sc2c2cnn(Cc3nc[nH]n3)c(=O)c21,≤ 1000 nM,< 300 nM,< 300 nM,< 300 nM,–
Cc1scnc1Cn1ncc2c3sc(Cc4cc[nH]n4)nc3n(C)c2c1=O,≤ 1000 nM,< 300 nM,< 300 nM,< 300 nM,–
Cn1c2nc(Cc3cscn3)sc2c2cnn(Cc3nccs3)c(=O)c21,≤ 1000 nM,< 300 nM,< 300 nM,< 300 nM,–
Cn1c2nc(Cc3cc[nH]n3)sc2c2cnn(Cc3ncc[nH]3)c(=O)c21,≤ 1000 nM,< 300 nM,< 300 nM,< 300 nM,–
Cn1c2nc(Cc3csc(CO)n3)sc2c2cnn(Cc3cc[nH]n3)c(=O)c21,≤ 1000 nM,< 300 nM,< 300 nM,< 300 nM,–
Cn1c2nc(Cc3ccccn3)sc2c2cnn(Cc3nccs3)c(=O)c21,≤ 1000 nM,< 300 nM,< 300 nM,< 300 nM,–
Cn1c2nc(Cc3ccccn3)sc2c2cnn(Cc3cc[nH]n3)c(=O)c21,≤ 1000 nM,< 300 nM,< 300 nM,< 300 nM,–
Cn1c2nc(Cc3csc(CO)n3)sc2c2cnn(Cc3nccs3)c(=O)c21,≤ 1000 nM,< 300 nM,< 300 nM,< 300 nM,–
Cn1c2nc(Cc3cc[nH]n3)sc2c2cnn(Cc3ncns3)c(=O)c21,≤ 1000 nM,< 300 nM,< 300 nM,< 300 nM,–
Cn1c2nc(Cc3cscn3)sc2c2cnn(Cc3csc(N)n3)c(=O)c21,≤ 1000 nM,< 300 nM,< 300 nM,< 300 nM,–
Cn1c2nc(Cc3cscn3)sc2c2cnn(Cc3cscn3)c(=O)c21,≤ 1000 nM,< 300 nM,< 300 nM,< 300 nM,–
Cn1c2nc(Cc3c[nH]cn3)sc2c2cnn(Cc3ncsc3C(F)(F)F)c(=O)c21,> 1000 nM,> 800 nM,> 800 nM,> 800 nM,–
Cn1c2nc(Cc3c[nH]cn3)sc2c2cnn(Cc3ncsc3Cl)c(=O)c21,≤ 1000 nM,< 300 nM,< 300 nM,< 300 nM,–
Cn1ccc(Cn2ncc3c4sc(Cc5cscn5)nc4n(C)c3c2=O)n1,≤ 1000 nM,< 300 nM,< 300 nM,< 300 nM,–
Cn1c2nc(Cc3ccccn3)sc2c2cnn(Cc3csc(N)n3)c(=O)c21,≤ 1000 nM,< 300 nM,< 300 nM,< 300 nM,–
Cn1c2nc(Cc3ccccn3)sc2c2cnn(Cc3cscn3)c(=O)c21,≤ 1000 nM,< 300 nM,< 300 nM,< 300 nM,–
Cn1c2nc(Cc3cc[nH]n3)sc2c2cnn(Cc3n[nH]cc3OC(F)(F)F)c(=O)c21,> 1000 nM,301 to 800 nM,301 to 800 nM,301 to 800 nM,–
Cn1c2nc(Cc3cc[nH]n3)sc2c2cnn(Cc3coc(N)n3)c(=O)c21,≤ 1000 nM,< 300 nM,< 300 nM,< 300 nM,–
Cn1cc(CN)c(Cn2ncc3c4sc(Cc5cc[nH]n5)nc4n(C)c3c2=O)n1,> 1000 nM,> 800 nM,> 800 nM,< 300 nM,–
Cn1cc(CC(N)=O)c(Cn2ncc3c4sc(Cc5cc[nH]n5)nc4n(C)c3c2=O)n1,> 1000 nM,> 800 nM,> 800 nM,> 800 nM,–

Structure (SMILES),AC50 (wild type PKR [1]),AC50 (PKR K410E),AC50 (wild type PKR [2]),AC50 (PKR R510Q),Cell based ATP assay AC50 (wild type PKR [1])
Cn1c2nc(Cc3cc[nH]n3)sc2c2cnn(Cc3nc[nH]c3C(N)=O)c(=O)c21,> 1000 nM,301 to 800 nM,301 to 800 nM,> 800 nM,–
Cn1c2nc(Cc3cc[nH]n3)sc2c2cnn(Cc3csc(F)n3)c(=O)c21,≤ 1000 nM,< 300 nM,< 300 nM,< 300 nM,–
Cn1c2nc(Cc3cc[nH]n3)sc2c2cnn(Cc3ccnn3N)c(=O)c21,≤ 1000 nM,< 300 nM,< 300 nM,< 300 nM,–
Cn1c2nc(Cc3cc[nH]n3)sc2c2cnn(Cc3n[nH]c(=O)[nH]3)c(=O)c21,> 1000 nM,> 800 nM,> 800 nM,> 800 nM,–
Cn1c2nc(Cc3cc[nH]n3)sc2c2cnn(Cc3coc(C(N)=O)n3)c(=O)c21,≤ 1000 nM,> 800 nM,> 800 nM,> 800 nM,–
Cn1c2nc(Cc3cc[nH]n3)sc2c2cnn(Cc3cc(=O)[nH][nH]3)c(=O)c21,> 1000 nM,301 to 800 nM,301 to 800 nM,< 300 nM,–
Cn1c2nc(Cc3cc[nH]n3)sc2c2cnn(Cc3nc[nH]c3N)c(=O)c21,> 1000 nM,301 to 800 nM,301 to 800 nM,301 to 800 nM,–
Cn1c2nc(Cc3cc[nH]n3)sc2c2cnn(Cc3ccnc(N)n3)c(=O)c21,≤ 1000 nM,< 300 nM,< 300 nM,< 300 nM,–
Cn1c2nc(Cc3cc[nH]n3)sc2c2cnn(Cc3nccc(N)n3)c(=O)c21,≤ 1000 nM,301 to 800 nM,< 300 nM,< 300 nM,–
COc1sc(Br)nc1Cc1nc2c(s1)c1cnn(Cc3cc[nH]n3)c(=O)c1n2C,≤ 1000 nM,< 300 nM,< 300 nM,< 300 nM,–
COc1scnc1Cc1nc2c(s1)c1cnn(Cc3cc[nH]n3)c(=O)c1n2C,≤ 1000 nM,< 300 nM,< 300 nM,< 300 nM,–
Cn1cc(C(=O)O)c(Cn2ncc3c4sc(Cc5cc[nH]n5)nc4n(C)c3c2=O)n1,> 1000 nM,> 800 nM,> 800 nM,> 800 nM,–
Cn1c2nc(Cc3n[nH]cc3F)sc2c2cnn(Cc3n[nH]cc3Cl)c(=O)c21,≤ 1000 nM,< 300 nM,< 300 nM,< 300 nM,–
Cn1c2nc(Cc3n[nH]cc3F)sc2c2cnn(Cc3n[nH]cc3C(N)=O)c(=O)c21,≤ 1000 nM,< 300 nM,< 300 nM,< 300 nM,–
COc1ncccc1Cn1ncc2c3sc(Cc4n[nH]cc4F)nc3n(C)c2c1=O,≤ 1000 nM,< 300 nM,< 300 nM,< 300 nM,–
Cn1c2nc(Cc3n[nH]cc3F)sc2c2cnn(Cc3ccc[nH]c3=O)c(=O)c21,≤ 1000 nM,< 300 nM,< 300 nM,< 300 nM,–
Cn1c2nc(Cc3n[nH]cc3F)sc2c2cnn(Cc3n[nH]cc3C#N)c(=O)c21,≤ 1000 nM,< 300 nM,< 300 nM,< 300 nM,–
CC(=O)Nc1ccc(F)c(Cn2ncc3c4sc(Cc5cnn(C)c5)nc4n(C)c3c2=O)n1,> 1000 nM,> 800 nM,> 800 nM,> 800 nM,–
Cn1ccc(Cn2ncc3c4sc(C(=O)c5cc[nH]n5)nc4n(C)c3c2=O)n1,≤ 1000 nM,> 800 nM,> 800 nM,> 800 nM,–
Cn1c2nc(C(=O)c3cc[nH]n3)sc2c2cnn(Cc3cccc(N)n3)c(=O)c21,≤ 1000 nM,< 300 nM,301 to 800 nM,< 300 nM,–
CC(=O)Nc1ccc(F)c(Cn2ncc3c4sc(Cn5ccnc5)nc4n(C)c3c2=O)c1,> 1000 nM,> 800 nM,> 800 nM,> 800 nM,–
Cn1c2nc(Cc3ccccn3)sc2c2cnn(Cc3cccnc3)c(=O)c21,≤ 1000 nM,301 to 800 nM,301 to 800 nM,< 300 nM,–
Cn1c2nc(Cn3cncn3)sc2c2cnn(Cc3ccnc(N)n3)c(=O)c21,–,> 800 nM,> 800 nM,> 800 nM,No Fit
Cn1c2nc(Cn3ccnc3)sc2c2cnn(Cc3ccnc(N)n3)c(=O)c21,–,> 800 nM,> 800 nM,> 800 nM,No Fit
CC(c1cc[nH]n1)c1nc2c(s1)c1cnn(Cc3cc[nH]n3)c(=O)c1n2C (stereo not shown),≤ 1000 nM,< 300 nM,< 300 nM,< 300 nM,–
Cn1c2nc(C(=O)c3cc[nH]n3)sc2c2cnn(Cc3cc[nH]n3)c(=O)c21,≤ 1000 nM,> 800 nM,301 to 800 nM,301 to 800 nM,–
